From patent publication US20220211858A1, “TUBULAR SUPRAMOLECULAR POLYMERS” (priority 2019, published 2022)
Like-named read-outs stand apart in the source and are kept apart here.

Legend:
[1] = test system: HT-29 cells
Description: Antitumor efficacy study of SAPDs at the same dose on a HT-29 tumor model. […] When the averaged tumor size reached 75-95 mm^3, mice were randomly divided into six groups. […] The tumor volumes and body weights were monitored and recorded every two or three days. The tumor volume was estimated by measuring the length and width with calipers and using the equation “tumor volume=(length×width^2)/2”. Mice were euthanized once the tumor volume reached 1000 mm^3.

[2] = test system: human glioblastoma U87 MG cells; assay: Antitumor efficacy study for systemic delivery, subcutaneous U87 MG tumor; format: in vivo, athymic nude mice; conditions: controls: free CPT 4.5 mg/kg i.p.; irinotecan 60 mg/kg i.p.
Protocol: A total of 2×10^6 human glioblastoma U87 MG cells were subcutaneously injected into the right shoulder of athymic nude mice (8-9 weeks old). The mice were used for the efficacy study after three to four weeks when the tumor had reached about 190-250 mm^3 in size. […]. Water insoluble free CPT was dissolved/suspended in a mixture of DMSO/ethanol/PEG-400/water (1:1:2:1). CPT (4.5 mg/kg) and irinotecan (60 mg/kg) were administered by intraperitoneal injection, while freshly prepared TT 1 solutions of various doses were administered intravenously by tail vein injection every 4 days for a total of three doses (days 1, 5, and 9). […]. Tumor volumes were measured and recorded every other day. The body weights were measured and recorded every day or every other day. The tumor volume was determined by measuring the tumor in two dimensions with calipers and using the formula “tumor volume=(length×width^2)/2”. Each animal was euthanized once the tumor volume reached the predetermined end point size of 2000 mm^3.

[3] = test system: U87 MG human brain cancer cells; assay: cells; conditions: U-87 MG, 48 h
Protocol: (§1) The human brain cancer cell line U87 MG was a generous gift from Dr. Wirtz (ChemBE, JHU). DMEM (Invitrogen) containing 10% fetal bovine serum (FBS, Invitrogen) and 1% antibiotics (Invitrogen) was used for the culture of the U87 MG cells. Cancer cells were incubated at 37° C. in a humidified incubator (Oasis, Caron, Marietta, Ohio, USA) with an atmosphere of 5% CO2. […] U87 MG cells were seeded onto 96-well plates (5000 cells/well) and allowed to attach overnight. […] The stock solutions were then diluted with fresh medium to achieve final CPT concentrations of 0.1, 1, 10, 100, 500, 1000, 5000 and 10000 nM. After dilution, the nanotube-containing media were used to incubate cells immediately. Medium containing the same concentration of free CPT ranging from 0.1 to 10000 nM was also used to incubate the cells, with non-treated cells (solvent only) as the control group. In addition, irinotecan at the concentration of 0.1, 1, 5, 10, 50, 100 and 500 μM was employed as a second control. After 48 h incubation, the cell viability was evaluated using the SRB method according to the manufacturer's protocols (TOX-6, Sigma, St. Louis, Mo.).

[4] = in vivo; cited from earlier work
[5] = Gel release of TT 2 nanotube hydrogel; format: physicochemical; conditions: 10 mM in 1×-DPBS, 37° C., over 31 days
Protocol: TT 2 was dissolved in water and hydrogel formation triggered by the addition of 10×-DPBS to give a final TT 2 concentration of 10 mM in 1×-DPBS. 200 μL of the hydrogel was placed at the bottom of centrifuge tube and allowed to re-gel overnight. Three replicate experiments were prepared together and incubated at 37° C. Fresh 1×-DPBS (300 μL) was layered on top of the hydrogel and was refreshed at predetermined time points: 1, 2, 4, 7, 10, 13, 16, 19, 22, 25, 28, and 31 days. The samples were frozen with liquid nitrogen and stored at −30° C. until analysis. The amount of TT 2 in the top DPBS layer was determined by analytical RP-HPLC using the conditions described in the previous paragraph. The cumulative release of TT 2 from its hydrogels was calculated and plotted as a percentage of the total amount of hydrogel. The conjugate was seen to be released almost linearly from the hydrogel with ˜10% of the prodrugs being released over the 31-day period.

[6] = Zeta potential measurement; format: physicochemical; conditions: 1×-DPBS buffer
Protocol: TT solutions of 200 μM in 1×-DPBS buffer (pH=7.4) were prepared by directly mixing identical volumes of a 400 μM aqueous TT solution and 2×-DPBS buffer (pH=7.4). In some embodiments, solutions at a concentration of 2 mM in PBS buffer (pH=7.4) were prepared and aged overnight prior to zeta potential measurement. TT solutions of 200 μM in 1×-DPBS buffer (pH=5.0) were prepared by mixing identical volumes of a 400 μM aqueous TT solution and 2×-DPBS buffer (pH=5.0), which was pretreated with 6 M HCl. The zeta potential measurements were performed on a Zetasizer Nano ZS90 (Malvern Instruments Ltd., UK). The prepared solutions were loaded in capillary cells and equilibrated for 2 min prior to measurement. The average values and their standard deviations are calculated from three replicate measurements. The zeta potential of the assembled structures was obtained by measuring the electrophoretic movement of the nanostructures under the applied electric field, where the movement velocity is determined by phase analysis light scattering. Variations of the zeta potential value over time were determined by measuring the solutions at different aging time points (1, 2, 4 and 7 days) and are plotted in FIG. 10.

[7] = test system: U87 MG human glioblastoma; assay: Antitumor efficacy study for local delivery (intratumoral TT 2 hydrogel); format: in vivo, athymic nude mice; conditions: 10 mM hydrogel, 30 μL intratumoral
Protocol: The hydrogel formation of TT 2 in vivo was investigated through subcutaneous injection of a TT 2 gel. […] The tumor model used in local delivery is the same U87 MG human glioblastoma line used in the systemic delivery study described above. Mice were randomly selected (n=7) and treated with TT 2 hydrogel at a fixed dose (10 mM, 30 μL) through intratumoral injection. Tumor volumes and body weights were measured and recorded every other day. The tumor volume was determined by measuring the tumor in two dimensions with calipers and using the formula “tumor volume=(length×width^2)/2”. Each animal was euthanized once the tumor […] reached the predetermined end point size of 2000 mm^3.
The antitumor efficacy of TT 2 hydrogel was then evaluated in a subcutaneous U87 MG xenograft model via intratumoral injection of a 10 mM TT 2 SP hydrogel (30 μL). All seven mice studied experienced tumor regression with a minimum mean tumor volume of 36 mm^3 at day 25 and survived for more than 45 days (FIG. 3K).

[8] = test system: U87 MG human brain cancer cells; conditions: 48 h
Protocol: as §1

[9] = TEM / cryo-TEM imaging of self-assembled nanostructures (dimensions); format: physicochemical; conditions: self-assembled nanotubes in water, 200 μM, n>40
Protocol: About 200 μM stock solutions of corresponding TTs in water were prepared by dissolution of the lyophilized powders. After aging overnight, TEM samples were prepared by depositing 7 μL of the appropriate solution onto a carbon-coated copper grid (Electron Microscopy Services, Hatfield, Pa., USA), wicking away the excess solution with a small piece of filter paper. Next, 7 μL of a 2 wt % uranyl acetate aqueous solution was deposited on the surface for 30 seconds, wicking away the excess solution with filter paper. The grids were then air-dried overnight at room temperature prior to imaging. Bright-field TEM imaging was performed using an FEI Tecnai 12 TWIN Transmission Electron Microscope operated at an acceleration voltage of 100 kV. All TEM images were acquired by a SIS Megaview III wide-angle CCD camera or 16 bit 2K×2K FEI Eagle bottom mount camera.
Cryo-TEM imaging was performed using higher sample concentrations of 800 μM (compared with 200 μM for conventional TEM imaging). Extended imaging times can result in damage to the vitreous ice film caused by the electron beam and so higher concentrations can allow a more rapid visualization that reduces this likelihood. About 6 μL of the appropriate solution was dropped onto a lacey carbon-film-supported TEM copper grid (Electron Microscopy Services, Hatfield, Pa., USA). All the TEM grids used for cryo-TEM imaging were pretreated with plasma air to render the lacey carbon film hydrophilic. A thin film of the sample solution was produced using a Vitrobot with a controlled humidity chamber (FEI). After loading of the sample solution, the lacey carbon grid was blotted using preset parameters and plunged instantly into a liquid ethane reservoir precooled by liquid nitrogen. The vitrified samples were then transferred to a cryo-holder and cryo-transfer stage that was cooled by liquid nitrogen. To prevent sublimation of vitreous water, the cryo-holder temperature was maintained below −170° C. during the imaging process. All images were recorded by a Tecnai 12 microscope with a cryo-holder, and the images were acquired by a 16 bit 2K×2K FEI Eagle bottom mount camera.
Self-Assembly of SAPDs from TT1. To study the self-assembly behavior of the SAPDs, we directly dissolved the lyophilized powders in deionized water at a concentration of 2 mM and neutral pH.

[10] = Tolerability of free CPT in mice; format: in vivo
Protocol: Due to its poor water solubility, free CPT is often given in a formulation containing a mixture of DMSO/ethanol/PEG-400/water at a volumetric ratio of 1:1:2:1 (24). […] We eventually identified an intraperitoneal injection of 4.5 mg/kg CPT to be a tolerable dosage for animal studies. In contrast, the MTD of TT 1 SPs in healthy athymic nude mice, identified in a dose escalation study through systemic administration, is within the range of 24-30 mg/kg (CPT equivalent) (FIG. 3D and FIG. 13). […] Four out of five mice survived for up to 37 d (9 mg/kg) and 43 d (15 mg/kg).

[11] = Biodistribution study in U87 MG tumor-bearing mice; format: in vivo, nude mice; conditions: nude, mouse, in vivo, 4.5 mg/kg, 4.5 mg/kg i.v., 1 hour after injection
Protocol: Mice bearing subcutaneous tumors were established by injecting 100 μL of a U87 MG suspension in serum-free medium (2×10^6 cells) into the right flank of the mice. When the tumor reached a size of −200 mm^3, the mice were randomly grouped and received one of the following 3 treatments via intravenous injection (n=18 for each group): free CPT (4.5 mg/kg), TT 1 (4.5 mg/kg), and TT 1 (15 mg/kg). Three mice from each group were euthanized at pre-determined time points (1, 2, 4, 8, 12, and 24 h). Plasma, major organs, and tumors were collected and stored at −80° C. for further analysis. To determine the amount of free CPT and TT 1 in the samples, 100 mg tumors were mixed with 900 μL acetonitrile (containing 0.1% TFA) and then homogenized using Precellys Evolution Super Homogenizer (Bertin Technologies, France) for 3×40 s (5,600 shakes/min). The resulting suspensions were centrifuged and the supernatants were collected. For plasma, 50 μL of sample was mixed with 450 μL acetonitrile (containing 0.1% TFA) and sonicated for 1 min. The supernatants were collected using centrifugation. All samples were filtered through a 0.22 μm membrane before analysis by a UPLC system (Waters ACQuity™ Ultra Performance LC) equipped with a reverse-phase column (ACQuity UPLC@BEH, C18, 1.7 μm 2.1×150 mm) and a fluorescence detector (ACQuity FLR, Ex/Em=362/430 nm). The column was flushed with a mixture of water (0.1% TFA) and acetonitrile (0.1% TFA) at 0.3 mL/min with the following gradient: 5% acetonitrile (0-1 min), 5-95% acetonitrile (1-5 min), 95% acetonitrile (5-8 min), 95-5% acetonitrile (8-9 min), and 5% acetonitrile (9-10 min). Peaks with retention times of 5.4 min (free CPT) and 6.9 min (TT 1) were monitored.

Row | Compound | median survival [2] [days] | IC50 [3] [µM] | ζ-Potential ([6]; pH 5.0, 200 μM) [mV] | ζ-Potential ([6]; pH 7.4, 200 μM) [mV] | Diameters measured by conventional TEM [9] [nm] | ζ-potential at pH 7.4 versus pH 5.0 [6] | also measured
1 | CCc1c2c(nc3ccc(OC(=O)N4CCC(N5CCCCC5)CC4)cc13)-c1cc3c(c(=O)n1C2)COC(=O)[C@]3(O)CC [irinotecan, reference compound] | 27 | 6.5 |  |  |  |  | median survival ([1]; SAPDs 10 mg/kg i.v. days 1, 5, 9, 13, irinotecan 100 mg/kg i.p. days 1, 8, 15): 51 days; reported MTD [4]: 100 mg/kg
2 | CC[C@]1(OC(=O)OCCSSC[C@@H](NC(C)=O)C(=O)N[C@@H](CCCCNC(=O)[C@@H](CSSCCOC(=O)O[C@]2(CC)C(=O)OCc3c2cc2n(c3=O)Cc3cc4ccccc4nc3-2)NC(C)=O)C(=O)N[C@@H](CCCCN)C(=O)N[C@@H](CCCCN)C(N)=O)C(=O)OCc2c1cc1n(c2=O)Cc2cc3ccccc3nc2-1 [TT 2] |  |  | 31.8 | 22.1 | 8.1 ± 0.6 |  | cumulative release of TT 2 from hydrogel [5]: ~10%; mice with complete tumor regression [7]: Four out of seven; survival to end point of tumor-free mice [7]: around 140 d; minimum mean tumor volume ([7]; day 25, n=7): 36 mm^3; survival of all treated mice ([7]; n=7): more than 45 days; IC50 [8]: 0.123 µM
3 | CC[C@]1(OC(=O)OCCSSC[C@@H](NC(C)=O)C(=O)N[C@@H](CCCCNC(=O)[C@@H](CSSCCOC(=O)O[C@]2(CC)C(=O)OCc3c2cc2n(c3=O)Cc3cc4ccccc4nc3-2)NC(C)=O)C(=O)N[C@@H](CCC(=O)O)C(=O)N[C@@H](CCC(=O)O)C(N)=O)C(=O)OCc2c1cc1n(c2=O)Cc2cc3ccccc3nc2-1 [TT 3] |  |  |  |  | 8.4 ± 0.9 | more negative ζ-potentials at pH 7.4 than 5.0 | 
4 | CC[C@]1(OC(=O)OCCSSC[C@@H](NC(C)=O)C(=O)N[C@@H](CCCCNC(=O)[C@@H](CSSCCOC(=O)O[C@]2(CC)C(=O)OCc3c2cc2n(c3=O)Cc3cc4ccccc4nc3-2)NC(C)=O)C(=O)N[C@@H](CCCCN)C(=O)N[C@@H](CCC(=O)O)C(N)=O)C(=O)OCc2c1cc1n(c2=O)Cc2cc3ccccc3nc2-1 [TT 4] |  |  | −2.3 | −18.8 | 8.3 ± 0.9 |  | 
5 | CC[C@]1(OC(=O)OCCSSC[C@@H](NC(C)=O)C(=O)N[C@@H](CCCCNC(=O)[C@@H](CSSCCOC(=O)O[C@]2(CC)C(=O)OCc3c2cc2n(c3=O)Cc3cc4ccccc4nc3-2)NC(C)=O)C(=O)N[C@H](CCCCNC(=O)CN2CCN(CC(=O)O)CCN(CC(=O)O)CCN(CC(=O)O)CC2)C(N)=O)C(=O)OCc2c1cc1n(c2=O)Cc2cc3ccccc3nc2-1 [TT 5] |  |  |  |  | 8.4 ± 0.9 | more negative ζ-potentials at pH 7.4 than 5.0 | 
6 | CC[C@@]1(O)C(=O)OCc2c1cc1n(c2=O)Cc2cc3ccccc3nc2-1 [CPT, Camptothecin, reference compound] | 17 | 0.062 |  |  |  |  | treatment outcome (deaths) ([1]; free CPT 9 mg/kg i.p., n=5): death of all five mice after the second dose; outcome of intravenous administration ([10]; 9 mg/kg i.v., DMSO/ethanol/PEG-400/water formulation): immediate death; tolerable dosage ([10]; intraperitoneal injection): 4.5 mg/kg; MTD ([10]; mouse, in vivo, intraperitoneal): ~5 mg/kg; concentration at 1 h ([11]; read-out: drug concentration in plasma): 37 ng/g; concentration at 1 h ([11]; read-out: drug concentration in tumor): 92 ng/g
